These results are taken from patent US9708312B2, “Dihydropyrimidinoisoquinolinones and pharmaceutical compositions thereof for the treatment of inflammatory disorders (GPR84 antagonists)” (GALAPAGOS NV, priority 2012, dated 2017).

Assay [1] deals with T1, GPR84 (Homo sapiens, UniProt Q9NQS5).
T1 construct: expressed in transfected cells
Briefly: GPR84 [35S]GTPγS binding assay, Tris buffer (alternative). The format is biochemical. Particulars: 3,3′ di indolylmethane at EC80, membranes from stable cell line over expressing GPR84, read-out: Alternative GPR84 assay GTPγS IC50 (GPR84-2). As to the method:
1.1. Cell Based Assay: GTp-γ S Binding Assay.
The following assay can be used for determination of GPR84 activation. The [^35S]GTPγS binding assay measures the level of G protein activation following agonist occupation of a GPCR, by determining the binding of the non-hydrolysable analog [^35S]GTPγS to Gα subunits.
Alternatively, the assay is performed in a 96 well plate where the following reagents are added. First 50 μL compound is added into the assay plate, followed by addition of 20 μL 3,3′ di indolylmethane at EC80 concentration (concentration which gives 80% of the activity of GPR84). In a last step, 30 μL of a mixture consisting of membranes-GTPγS-SpA beads is added [mixture consists of 20 μg/well membranes derived from stable cell line over expressing GPR84 (membranes are pre-incubated with 0.1 μM GDP for 15 min at 4° C.), 0.1 nM [^35S]GTPγS (Perkin Elmer, NEG030) and 0.5 mg/well PVT-WGA SpA beads (Perkin Elmer, RPNQ0001)]. All components are diluted in assay buffer containing 20 mM Tris pH 7.5; 5 mM MgCl2; 250 mM NaCl; 0.05% BSA; 75 ug/mL saponin Reactions are incubated for 90 min at room temperature followed by centrifugation at 2000 rpm during 15 min. Plates are read on a Topcount reader (Perkin Elmer) immediately after centrifugation (readout time, 1 min/well).
A general note: GTPγS is a poorly hydrolysed GTP analogue; its binding reports G protein activation.

The test system of another assay is human neutrophils. Briefly: Human neutrophil migration assay (embelin-induced chemotaxis). The format is cell-based. Particulars: for IC50: Neutrophil, neutrophils from human buffy coats, embelin at EC80. As to the method: 2.1. Human Neutrophil Migration Assay
The effect of agonists or antagonists for GPR84 can therefore be assayed in a neutrophil migration test. In the neutrophil migration assay, neutrophils, freshly isolated from buffy coats from human volunteers, are treated with a compound for 30 min Subsequently, the neutrophils are transferred to the upper wells of a Corning HTS transwell 96 permeable support system, of which the lower wells are filled with a embelin solution at EC80 (concentration which gives 80% of the activity of GPR84). After 1 h of incubation, migration of the neutrophils towards embelin in the lower compartment can be quantified by measuring the ATP-content of the lower wells using the ATPlite luminescence ATP detection assay system (Perkin Elmer, Cat. No.: 436110).
2.1.1 Isolation of Neutrophils from Human Buffy Coat
A human buffy coat is diluted with an equal volume of ice cold DPBS. 20 mL of the diluted buffy coat is gently mixed with 4 mL of ACD buffer (140 mM citric acid, 200 mM sodium citrate and 220 mM dextrose). Then, 12 mL of the 6% dextran/0.9% NaCl solution (15 g dextran T2000 and 2.25 g NaCl dissolved in 250 mL H2O) is added to the mixture and the samples are inverted gently up to 20 times. The total volume was transferred to a new recipient and incubated at room temperature for 1 h for complete separation of the two phases to occur. The yellowish supernatant is then transferred to a clean centrifugation tube and centrifuged for 12 min at 1300 rpm and 4° C. After centrifugation, the supernatant is discarded and the remaining cell pellet is rapidly resuspended in 12 mL of ice-cold H2O for red blood cell lysis to occur. After 20 seconds, 4 mL of ice-cold 0.6 M KCl is added. Samples are mixed carefully and centrifuged for 6 min at 1300 rpm, 4° C. The supernatant is discarded and the red blood cell lysis procedure is repeated one more time. Subsequently, the cell pellet is resuspended in 4 mL of DPBS and layered over 5 mL of Lymphoprep (Nycomed Pharma, Cat. No.: 1114545) in a 15 mL centrifuge tube. After centrifugation for 12 min at 1300 rpm, 4° C., the supernatant is removed and the cell pellet, containing the neutrophils, is resuspended in 25 mL chemotaxis buffer (RPMI 1640 medium, supplemented with 10 mM HEPES; freshly made for each experiment)
A cell suspension of 8.9×10^6 cells per milliliter is prepared. 20 μL of compound solution in chemotaxis buffer is added to 180 μL cell suspension. The mixture is incubated at 37° C. for 30 min with intermediate resuspension of the cells after 15 min Following this, 70 μL cell suspension is transferred to the upper compartment of a Corning HTS transwell 96 permeable support system with 5.0 μm pore size polycarbonate membrane (Corning, Cat. No.: 3387). The receiver well of the transwell system is then filled with 200 μL chemotaxis buffer containing compound and chemotactic agent (embelin). After incubation at 37° C. in 5% CO2 for 1 h, the upper plate of the transwell system is removed and the cell suspension in the receiver plate is transferred to a 96-well V-bottom plate. 50 μL of DPBS is added to the receiver plate to prevent remaining cells from drying out. The V-bottom plate is centrifuged for 6 min at 1500 rpm. The supernatant is removed and the cells are resuspended in 50 μL DPBS. The cells are then transferred back to the receiver plate of the transwell system. After this, 100 μL ATPlite solution (Perkin Elmer, Cat. No: 436110) was added to the cells. The plate is incubated for 10 min in the dark, while shaking. […] of cell lysate is then transferred to a white 96-well plate and luminescence is measured. The detected luminescent signal is considered as linearely related to the number of cells having migrated from the upper well to the receiver well.

The target of assay [2] is T1, GPR84. Put plainly: GPR84 [35S]GTPγS binding assay, HEPES buffer. The format is biochemical. Conditions: 3,3′ di indolylmethane at EC80, membranes from stable cell line over expressing GPR84. In short, it runs like this:
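Membranes from a stable GPR84-overexpressing cell line (20 μg/well), pre-incubated with 0.1 μM GDP for 15 min at 4° C, mixed with 0.1 nM [35S]GTPγS and WGA SpA beads in 20 mM HEPES pH 7.4, 5 mM MgCl2, 250 mM NaCl, 0.05% BSA, 75 ug/mL saponin. Incubated 90 min at room temperature; scintillation proximity read after centrifugation.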

SMILES strings stand for the structures.

T1 sequence (Q9NQS5 whole entry): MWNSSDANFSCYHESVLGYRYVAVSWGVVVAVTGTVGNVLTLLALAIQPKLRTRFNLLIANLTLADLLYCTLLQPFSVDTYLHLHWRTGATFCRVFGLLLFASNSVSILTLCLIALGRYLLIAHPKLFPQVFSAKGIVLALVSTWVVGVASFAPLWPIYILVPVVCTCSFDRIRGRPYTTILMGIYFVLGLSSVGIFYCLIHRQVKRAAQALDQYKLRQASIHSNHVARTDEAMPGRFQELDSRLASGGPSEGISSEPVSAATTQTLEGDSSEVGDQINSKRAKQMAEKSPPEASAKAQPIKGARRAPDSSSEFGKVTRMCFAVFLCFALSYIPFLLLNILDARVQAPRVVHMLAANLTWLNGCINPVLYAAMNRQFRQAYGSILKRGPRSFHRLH

As for `O=c1nc(OCC2COc3ncccc3O2)cc2n1CCc1cc(C#CCO)ccc1-2` (stereo not shown) [compound 138, 2-(2,3-dihydro-[1,4]dioxino[2,3-b]pyridin-2-ylmethoxy)-9-(3-hydroxy-prop-1-ynyl)-6,7-dihydro-pyrimido[6,1-a]isoquinolin-4-one], the IC50 (commonly the concentration that gives 50% inhibition) on GPR84 [1] was in the range of 0.01 to 100 nM. With `COc1ccc(-c2ccc3c(c2)CCn2c-3cc(OCC3CCCO3)nc2=O)cn1` (stereo not shown) [compound 110, 9-(6-methoxy-pyridin-3-yl)-2-(tetrahydro-furan-2-ylmethoxy)-6,7-dihydro-pyrimido[6,1-a]isoquinolin-4-one], the IC50 at GPR84 [1] was in the range of 100 to 500 nM. In the case of `O=C(COc1ccc2c(c1)CCn1c-2cc(OCC2COc3ccccc3O2)nc1=O)N1CCCC1` (stereo not shown) [compound 74, 2-(2,3-dihydro-benzo[1,4]dioxin-2-ylmethoxy)-9-(2-oxo-2-pyrrolidin-1-yl-ethoxy)-6,7-dihydro-pyrimido[6,1-a]isoquinolin-4-one], the IC50 is 0.01 to 100 nM in the assay on human neutrophils and 100 to 500 nM at GPR84 [2].

Take `Cc1noc(C)c1-c1ccc2c(c1)CCn1c-2cc(OCC2CCCO2)nc1=O` (stereo not shown) [compound 112, 9-(3,5-dimethyl-isoxazol-4-yl)-2-(tetrahydro-furan-2-ylmethoxy)-6,7-dihydro-pyrimido[6,1-a]isoquinolin-4-one]: the IC50 on GPR84 [1] fell in the range of 100 to 500 nM. Take `O=c1nc(OCC2COc3ncccc3O2)cc2n1CCc1cc(-c3cncnc3)ccc1-2` (stereo not shown) [compound 128, 2-(2,3-dihydro-[1,4]dioxino[2,3-b]pyridin-2-ylmethoxy)-9-pyrimidin-5-yl-6,7-dihydro-pyrimido[6,1-a]isoquinolin-4-one]: at GPR84 [1], the IC50 was in the range of 0.01 to 100 nM. Still for that read-out and setting: the figure for `N#CCCC#Cc1ccc2c(c1)CCn1c-2cc(OCC2COc3ncccc3O2)nc1=O` (stereo not shown) [compound 143, 5-[2-(2,3-dihydro-[1,4]dioxino[2,3-b]pyridin-2-ylmethoxy)-4-oxo-6,7-dihydro-pyrimido[6,1-a]isoquinolin-9-yl]-pent-4-ynenitrile] is 0.01 to 100 nM; for `CC(C)(C)C#Cc1ccc2c(c1)CCn1c-2cc(OCC2COc3ncccc3O2)nc1=O` (stereo not shown) [compound 144, 2-(2,3-dihydro-[1,4]dioxino[2,3-b]pyridin-2-ylmethoxy)-9-(3,3-dimethyl-but-1-ynyl)-6,7-dihydro-pyrimido[6,1-a]isoquinolin-4-one] it is 0.01 to 100 nM; for `O=c1nc(OCC2CCCO2)cc2n1CCc1cc(-c3ccc4ccccc4c3)ccc1-2` (stereo not shown) [compound 113, 9-naphthalen-2-yl-2-(tetrahydro-furan-2-ylmethoxy)-6,7-dihydro-pyrimido[6,1-a]isoquinolin-4-one] it is 0.01 to 100 nM. The same measure, in the same setting: the figure for `O=c1nc(OCC2CCCO2)cc2n1CCc1cc(-c3cccc4ccccc34)ccc1-2` (stereo not shown) [compound 114, 9-naphthalen-1-yl-2-(tetrahydro-furan-2-ylmethoxy)-6,7-dihydro-pyrimido[6,1-a]isoquinolin-4-one] is 500 to 1000 nM; for `COc1ccccc1-c1ccc2c(c1)CCn1c-2cc(OCC2COc3ncccc3O2)nc1=O` (stereo not shown) [compound 126, 2-(2,3-dihydro-[1,4]dioxino[2,3-b]pyridin-2-ylmethoxy)-9-(2-methoxy-phenyl)-6,7-dihydro-pyrimido[6,1-a]isoquinolin-4-one] it is 100 to 500 nM. In the assay on human neutrophils, `O=c1nc(OCC2COc3ncccc3O2)cc2n1CCc1cc(CN3CCCCC3)ccc1-2` (stereo not shown) [compound 199, 2-(2,3-dihydro-[1,4]dioxino[2,3-b]pyridin-2-ylmethoxy)-9-piperidin-1-ylmethyl-6,7-dihydro-pyrimido[6,1-a]isoquinolin-4-one] yielded an IC50 of 0.01 to 100 nM.

`O=c1nc(OCC2COc3ncccc3O2)cc2n1CCc1cc(COC3COC3)ccc1-2` (stereo not shown) [compound 202, 2-(2,3-dihydro-[1,4]dioxino[2,3-b]pyridin-2-ylmethoxy)-9-(oxetan-3-yloxymethyl)-6,7-dihydro-pyrimido[6,1-a]isoquinolin-4-one] showed an IC50 in the assay with human neutrophils of 0.01 to 100 nM. With `O=c1nc(OCC2CCCO2)cc2n1CCc1cc(OCC3COc4ccccc4O3)ccc1-2` (stereo not shown) [compound 18, 9-(2,3-dihydro-benzo[1,4]dioxin-2-ylmethoxy)-2-(tetrahydro-furan-2-ylmethoxy)-6,7-dihydro-pyrimido[6,1-a]isoquinolin-4-one], the IC50 with human neutrophils was 0.01 to 100 nM.

As to `O=c1nc(OCC2CCCO2)cc2n1CCc1cc(OCCOc3ccccc3)ccc1-2` (stereo not shown) [compound 15, 9-(2-phenoxy-ethoxy)-2-(tetrahydro-furan-2-ylmethoxy)-6,7-dihydro-pyrimido[6,1-a]isoquinolin-4-one], in the assay with human neutrophils, the IC50 fell in the range of 0.01 to 100 nM.

With `O=c1nc(OC[C@@H]2COc3ncccc3O2)cc2n1CCc1cc(OCc3ncco3)ccc1-2` [compound 190], the concentration for half-maximal inhibition (IC50) in the assay with human neutrophils was in the range of 0.01 to 100 nM; at GPR84 [2], 100 to 500 nM. `CCCC(O)C#Cc1ccc2c(c1)CCn1c-2cc(OCC2COc3ncccc3O2)nc1=O` (stereo not shown) [compound 183, 2-(2,3-dihydro-[1,4]dioxino[2,3-b]pyridin-2-ylmethoxy)-9-(3-hydroxy-hex-1-ynyl)-6,7-dihydro-pyrimido[6,1-a]isoquinolin-4-one]: in the assay with human neutrophils, the IC50 lay within 0.01 to 100 nM.

`O=c1nc(OCC2COc3ncccc3O2)cc2n1CCc1cc(COCCN3CCOCC3)ccc1-2` (stereo not shown) [compound 192, 2-(2,3-dihydro-[1,4]dioxino[2,3-b]pyridin-2-ylmethoxy)-9-(2-morpholin-4-yl-ethoxymethyl)-6,7-dihydro-pyrimido[6,1-a]isoquinolin-4-one]: the IC50 with human neutrophils is 0.01 to 100 nM. In the case of `c1ccc2c(Cc3c[nH]c4ccccc34)c[nH]c2c1` [3,3′ di indolylmethane, reference compound], the “neutrophil chemotaxis induced by GPR84 agonists” value in the assay on human neutrophils is listed as “induce neutrophil chemotaxis”. `O=c1nc(OCC2COc3ncccc3O2)cc2n1CCc1cc(-c3cn[nH]c3)ccc1-2` (stereo not shown) [compound 180, 2-(2,3-dihydro-[1,4]dioxino[2,3-b]pyridin-2-ylmethoxy)-9-(1H-pyrazol-4-yl)-6,7-dihydro-pyrimido[6,1-a]isoquinolin-4-one] came in with an IC50 with human neutrophils of 0.01 to 100 nM. In the assay with human neutrophils, `CCC(O)C#Cc1ccc2c(c1)CCn1c-2cc(OCC2COc3ncccc3O2)nc1=O` (stereo not shown) [compound 182, 2-(2,3-dihydro-[1,4]dioxino[2,3-b]pyridin-2-ylmethoxy)-9-(3-hydroxy-pent-1-ynyl)-6,7-dihydro-pyrimido[6,1-a]isoquinolin-4-one] returned an IC50 of 0.01 to 100 nM.
